# Test results taken from the supplement of paper PMC8671470.
# Tested on: THP-1
# Assay: cell viability (% survival relative to DMSO control, bortezomib = 0%); higher = less cytotoxic
# Settings: 1000 nM; 72 h
# In short: (§1)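 Fifteen myeloid leukaemia cell lines were exposed to compounds at 1, 10, 100, 1000 or 10000 nM in 384-well plates for 72 h at 37 °C and 5% CO2. Viability was read by CellTiter-Glo luminescence and normalised, with vehicle as 100% and a 10 µM positive control as 0%. Values are percent survival averaged over duplicates.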
row,SMILES,cell viability
1,O=C(/C=C/c1cccnc1)NCCCCC1CCN(C(=O)c2ccccc2)CC1 [Daporinad],104%
2,N=C(N)c1ccc(N=NNc2ccc(C(=N)N)cc2)cc1 [Diminazene],103%
3,OCCN(CCO)c1nc(N2CCCCC2)c2nc(N(CCO)CCO)nc(N3CCCCC3)c2n1 [Dipyridamole],90.8%
4,Cc1cc(O)c2c(c1)C(=O)c1cc(O)cc(O)c1C2=O [Emodin],90.5%
5,N#Cc1ccc(C2CCCc3cncn32)cc1 (centres undefined) [Fadrozole],107%
6,Cc1nc(-c2ccc(OCC(C)C)c(C#N)c2)sc1C(=O)O [Febuxostat],99.6%

# Same assay, conditions: 10000 nM; 72 h
row,SMILES,cell viability
1,CN(C)CCNC(=O)c1cccn2c(=O)c3cc4ccccc4cc3nc12 [Bmh-21],-0.241%
2,C=C1C(=O)O[C@H](CCCCCCCC)[C@H]1C(=O)O [C75],102%
3,O=C(Cc1cccc(OC(F)(F)F)c1)Nc1ccc(CCCCc2nnc(NC(=O)Cc3ccccn3)s2)nn1 [CB-839],83.7%
4,O=NN(CCCl)C(=O)NCCCl [Carmustine],98.9%
5,O[C@H]1[C@H](O)[C@@H](O)CN2CC[C@H](O)[C@H]12 [Castanospermine],98.8%
6,O=C(/C=C/c1cccnc1)NCCCCC1CCN(C(=O)c2ccccc2)CC1 [Daporinad],101%
7,N=C(N)c1ccc(N=NNc2ccc(C(=N)N)cc2)cc1 [Diminazene],86.3%
8,OCCN(CCO)c1nc(N2CCCCC2)c2nc(N(CCO)CCO)nc(N3CCCCC3)c2n1 [Dipyridamole],81.5%
9,Cc1cc(O)c2c(c1)C(=O)c1cc(O)cc(O)c1C2=O [Emodin],105%
10,N#Cc1ccc(C2CCCc3cncn32)cc1 (centres undefined) [Fadrozole],102%
11,Cc1nc(-c2ccc(OCC(C)C)c(C#N)c2)sc1C(=O)O [Febuxostat],93.6%

# Tested on: ML-2
# Assay: as above
# Settings: 1 nM; 72 h
# In short: as §1
row,SMILES,cell viability
1,CN(C)CCNC(=O)c1cccn2c(=O)c3cc4ccccc4cc3nc12 [Bmh-21],111%
2,C=C1C(=O)O[C@H](CCCCCCCC)[C@H]1C(=O)O [C75],115%
3,O=C(Cc1cccc(OC(F)(F)F)c1)Nc1ccc(CCCCc2nnc(NC(=O)Cc3ccccn3)s2)nn1 [CB-839],111%
4,O=NN(CCCl)C(=O)NCCCl [Carmustine],104%
5,O[C@H]1[C@H](O)[C@@H](O)CN2CC[C@H](O)[C@H]12 [Castanospermine],115%
6,O=C(/C=C/c1cccnc1)NCCCCC1CCN(C(=O)c2ccccc2)CC1 [Daporinad],66%
7,N=C(N)c1ccc(N=NNc2ccc(C(=N)N)cc2)cc1 [Diminazene],104%
8,OCCN(CCO)c1nc(N2CCCCC2)c2nc(N(CCO)CCO)nc(N3CCCCC3)c2n1 [Dipyridamole],93.4%
9,Cc1cc(O)c2c(c1)C(=O)c1cc(O)cc(O)c1C2=O [Emodin],97.8%
10,N#Cc1ccc(C2CCCc3cncn32)cc1 (centres undefined) [Fadrozole],90.5%
11,Cc1nc(-c2ccc(OCC(C)C)c(C#N)c2)sc1C(=O)O [Febuxostat],94%

# Same assay, conditions: 10 nM; 72 h
row,SMILES,cell viability
1,CN(C)CCNC(=O)c1cccn2c(=O)c3cc4ccccc4cc3nc12 [Bmh-21],106%
2,C=C1C(=O)O[C@H](CCCCCCCC)[C@H]1C(=O)O [C75],90.1%
3,O=C(Cc1cccc(OC(F)(F)F)c1)Nc1ccc(CCCCc2nnc(NC(=O)Cc3ccccn3)s2)nn1 [CB-839],89.8%
4,O=NN(CCCl)C(=O)NCCCl [Carmustine],122%
5,O[C@H]1[C@H](O)[C@@H](O)CN2CC[C@H](O)[C@H]12 [Castanospermine],107%
6,O=C(/C=C/c1cccnc1)NCCCCC1CCN(C(=O)c2ccccc2)CC1 [Daporinad],1.63%
7,N=C(N)c1ccc(N=NNc2ccc(C(=N)N)cc2)cc1 [Diminazene],98.7%
8,OCCN(CCO)c1nc(N2CCCCC2)c2nc(N(CCO)CCO)nc(N3CCCCC3)c2n1 [Dipyridamole],104%
9,Cc1cc(O)c2c(c1)C(=O)c1cc(O)cc(O)c1C2=O [Emodin],104%
10,N#Cc1ccc(C2CCCc3cncn32)cc1 (centres undefined) [Fadrozole],90.7%
11,Cc1nc(-c2ccc(OCC(C)C)c(C#N)c2)sc1C(=O)O [Febuxostat],96%

# Same assay, conditions: 100 nM; 72 h
row,SMILES,cell viability
1,CN(C)CCNC(=O)c1cccn2c(=O)c3cc4ccccc4cc3nc12 [Bmh-21],99.4%
2,C=C1C(=O)O[C@H](CCCCCCCC)[C@H]1C(=O)O [C75],108%
3,O=C(Cc1cccc(OC(F)(F)F)c1)Nc1ccc(CCCCc2nnc(NC(=O)Cc3ccccn3)s2)nn1 [CB-839],94.3%
4,O=NN(CCCl)C(=O)NCCCl [Carmustine],106%
5,O[C@H]1[C@H](O)[C@@H](O)CN2CC[C@H](O)[C@H]12 [Castanospermine],103%
6,O=C(/C=C/c1cccnc1)NCCCCC1CCN(C(=O)c2ccccc2)CC1 [Daporinad],0.115%
7,N=C(N)c1ccc(N=NNc2ccc(C(=N)N)cc2)cc1 [Diminazene],100%
8,OCCN(CCO)c1nc(N2CCCCC2)c2nc(N(CCO)CCO)nc(N3CCCCC3)c2n1 [Dipyridamole],123%
9,Cc1cc(O)c2c(c1)C(=O)c1cc(O)cc(O)c1C2=O [Emodin],101%
10,N#Cc1ccc(C2CCCc3cncn32)cc1 (centres undefined) [Fadrozole],86.2%
11,Cc1nc(-c2ccc(OCC(C)C)c(C#N)c2)sc1C(=O)O [Febuxostat],100%

# Same assay, conditions: 1000 nM; 72 h
row,SMILES,cell viability
1,CN(C)CCNC(=O)c1cccn2c(=O)c3cc4ccccc4cc3nc12 [Bmh-21],-0.0196%
2,C=C1C(=O)O[C@H](CCCCCCCC)[C@H]1C(=O)O [C75],110%
3,O=C(Cc1cccc(OC(F)(F)F)c1)Nc1ccc(CCCCc2nnc(NC(=O)Cc3ccccn3)s2)nn1 [CB-839],91.4%
4,O=NN(CCCl)C(=O)NCCCl [Carmustine],96%
5,O[C@H]1[C@H](O)[C@@H](O)CN2CC[C@H](O)[C@H]12 [Castanospermine],96%
6,O=C(/C=C/c1cccnc1)NCCCCC1CCN(C(=O)c2ccccc2)CC1 [Daporinad],0.00307%
7,N=C(N)c1ccc(N=NNc2ccc(C(=N)N)cc2)cc1 [Diminazene],106%
8,OCCN(CCO)c1nc(N2CCCCC2)c2nc(N(CCO)CCO)nc(N3CCCCC3)c2n1 [Dipyridamole],103%
9,Cc1cc(O)c2c(c1)C(=O)c1cc(O)cc(O)c1C2=O [Emodin],89.5%
10,N#Cc1ccc(C2CCCc3cncn32)cc1 (centres undefined) [Fadrozole],107%
11,Cc1nc(-c2ccc(OCC(C)C)c(C#N)c2)sc1C(=O)O [Febuxostat],90.2%

# Same assay, conditions: 10000 nM; 72 h
row,SMILES,cell viability
1,CN(C)CCNC(=O)c1cccn2c(=O)c3cc4ccccc4cc3nc12 [Bmh-21],-0.0121%
2,C=C1C(=O)O[C@H](CCCCCCCC)[C@H]1C(=O)O [C75],112%
3,O=C(Cc1cccc(OC(F)(F)F)c1)Nc1ccc(CCCCc2nnc(NC(=O)Cc3ccccn3)s2)nn1 [CB-839],89.9%
